# PMC12867150, “A fungi-derived cyclic peptide enhances Th9-mediated antitumor immunity by targeting ZAP70 and SREBP1” (The Journal of Clinical Investigation, 2025)
# Tested on: B16-OVA melanoma
# Assay: Adoptive transfer of OT-II Th9 cells, B16-OVA tumor growth in C57BL/6 mice (Figure 2A, 2H)
# Assay type: in vivo
# Details: EpA-Th9 cells vs conventional Th9 cells; result in words
# Description: (A) Schematic of the therapeutic model. C57BL/6 mice were subcutaneously inoculated with B16-OVA melanoma cells (5 × 10^5) and preconditioned with cyclophosphamide (CTX) on day 4. […] (B–G) Flow-cytometric analysis of transferred CD45.1^+ OT-II Th9 cells (B and C) and endogenous CD4^+ (D and E) and CD8^+ T cells (F and G) in spleens and tumors, showing frequencies and absolute numbers (n = 4 mice per group). (H) Tumor growth curves in B16-OVA–bearing C57BL/6 or β2-microglobulin–deficient (β2m-KO) mice following transfer of control or EpA-treated OT-II Th9 cells (n = 4 mice per group). (I) C57BL/6 mice bearing B16-OVA tumors were treated with control or EpA-induced OT-II Th9 cells (2 × 10^6, i.v., day 5), followed by anti–PD-1 antibody (200 μg, i.p.) on day 7, and (100 μg, i.p.) on day 10 and 12. Tumor growth is shown with individual trajectories (n = 6 mice per group). Statistical analysis was performed using 2-tailed unpaired Student’s t test ([…], B–G) or 1-way ANOVA with Tukey’s post hoc test (H and I). All data are presented as the mean ± SEM. *P < 0.05, **P < 0.01, ***P < 0.001. Schematic in A created using BioRender (https://Biorender.com).
# C57BL/6 mice were subcutaneously injected with 5 × 10^5 B16-OVA melanoma cells. […]
substance,measurement,value
anteiso-C15 Leu7 surfactin [EpA],tumor control,significantly improved tumor control
